Values of other authors as cited in patent US20240226204A9 (priority 2021, published 2024).

Test system: COVID-19
Conditions: human, in vivo

Compound	mortality	efficacy / antiviral effect in clinical use against COVID-19
C[C@@H]1C[C@H]2[C@@H]3CCC4=CC(=O)C=C[C@]4(C)[C@@]3(F)[C@@H](O)C[C@]2(C)[C@@]1(O)C(=O)CO [dexamethasone]	increase in mortality	
CCN(CCO)CCCC(C)Nc1ccnc2cc(Cl)ccc12 (stereo not drawn) [hydroxychloroquine]		lack of efficacy
lopinavir-ritonavir		lack of efficacy
